From PMC3762901, “Cyclic Peptide Inhibitors of the β-Sliding Clamp in Staphylococcus aureus” (PLoS ONE, 2013)
Peptide text beside a SMILES is read from it.

Columns and labels:
[1] = test system: recA-lacZ transcriptional fusion (SOS response); assay: SOS induction, recA-lacZ β-galactosidase; type: cell-based, Staphylococcus aureus; conditions: 2 μg/ml; after 210 minutes; LB, 37°C
Procedure: To test whether the cessation of DNA accumulation was accompanied by induction of the SOS response we measured the effects of both peptides on induction of the recA gene. Strain MTC157 contains a recA-lacZ transcriptional fusion in its chromosome. […] The level of induction was less that that observed for the DNA damaging agent mitomycin C (about 3-fold increase after 210 minutes). It is likely that both peptides results in malfunctioning of the replisome, and this provides the signal for SOS induction in these cells.
Figure 6 Peptide III-5 and III-6 induces the SOS response in S. aureus. S. aureus strain MTH157 (recA::lacZ) was grown exponentially in LB medium at 37°C. At an optical density OD600 = 0.1, Mitomycin C or Peptides III-5/III-6 were added to final concentrations of 2 μg/ml or 50 μg/ml, respectively. At the times indicated, samples were taken and the level of β-galactosidase determined (Materials and Methods).

S. epidermidis = type: cell-based, Staphylococcus epidermidis; conditions: cyclic peptides; data not shown
Procedure: The antibacterial activities of the purified peptides were determined against Staphylococcus epidermidis and S. aureus. […] We can conclude that some but not all of the identified cyclic peptides are able to penetrate the bacterial membrane to find their intracellular target. […] As expected none of the peptides isolated had any activity towards E. coli, whereas they inhibited growth of B. subtilis, another gram positive bacterium (data not shown).

[2] = test system: S. aureus DnaN-DnaN interaction (β-sliding clamp dimerization); assay: Bacterial two-hybrid (BTH) β-galactosidase assay of DnaN-DnaN interaction; type: cell-based, Staphylococcus aureus
Procedure: The library was screened for peptides able to disrupt DnaN-DnaN interaction of the Staphylococcus replisome by transforming into the R-BTH strain SC01 containing interacting Cya fusion proteins. Cells were plated on plates containing 5-FOA and 1 mM IPTG to induce expression of the cyclic peptides. We readily identified clones where expressed peptides restored cell viability in the presence of 5-FOA (Fig. 3A). To initially assess the activity of the selected peptides we determined their ability to reduce DnaN-DnaN interaction in the original two hybrid system.
Figure 3 Identification of peptides that interfere with DnaN-DnaN interaction. […] After screening of our SICLOPPS library, growth was restored in 7 clones.A. (B) The cyclic peptides identified in (A) were expressed in the original bacterial two-hybrid strain (BTH101) containing T18:DnaN and DnaN:T25 fusion plasmids and the level of β-galactosidase activity was determined as described in Materials and Methods.
Bacterial two-hybrid assay was performed as described previously. Derivatives of plasmids pUT18 and p25N encoding replication proteins were constructed by cloning PCR-amplified DNA fragments in frame with the T25 and T18 fragments of cya. T18 and T25 fusions were transformed into BTH101, and plated on plates containing 40 μg/ml of 5-bromo-4-chloro-indolyl-β-D-galactoside (X-gal) and relevant antibiotics. […] For β-galactosidase assays, cells were grown exponentially at 30°C in LB supplemented with 0.5 mM IPTG, and β-galactosidase activities were measured as described by.

S. aureus strain 8325-4 [3] = assay: Growth (colony forming units) of S. aureus with or without DnaN overproduction after peptide addition; type: cell-based, Staphylococcus aureus; conditions: 40 μg/ml peptide, LB, 37°C, repeated 4 times
Procedure: To ensure that the antibacterial effects of peptides III-5 and III-6 were the result of direct interaction of these peptides with the β-clamp, we decided to overproduce DnaN in S. aureus cells. The dnaN gene was cloned under control of the cadmium induclible pCAD promoter of plasmid pCN51 [37]. Cells were grown exponentially at 37°C in LB medium and 3 hours prior to peptide addition expression of dnaN was induced by addition of 10 μM CdCl2. At time T = 0 peptides III-5 or III-6 were added to a final concentration of 40 μg/ml which is very close to the MIC value for both of these peptides (Fig. 4).
Figure 4 Overproduction of DnaN in S. aureus relieves the growth inhibition imposed by peptides III-5 and […]. S. aureus strain 8325-4 containing either the vector plasmid pCN51 (black filled squares) or plasmid pSC141 (grey triangles) was grown exponentially at 37°C in LB medium supplemented with 10 μg/ml erythromycin. CdCl2 was added to all cultures to a final concentration of 10 μM to induce overproduction of DnaN from pSC141 three hours prior to peptide addition. At T = 0, 40 μg/ml of peptide III-5 (middle panel) or III-6 (bottom panel) was added to the cultures. The number of colony forming units was determined by plating. The experiment were repeated 4 times with similar results.

[4] = test system: DNA replication in S. aureus strain 8325-4; assay: DNA synthesis, incorporation of 3H-thymidine; type: cell-based, Staphylococcus aureus; conditions: 50 μg/ml peptide; LB, 37°C; TCA precipitate, scintillation counting; repeated 3 times
Procedure: (§1) In order to test the direct effects of peptides III-5 and III-6 on DNA replication in S. aureus, strain 8325-4 was grown exponentially at 37°C in LB medium. Incorporation of ^3H-thymidine into the DNA was determined at various times after addition of 50 μg/ml of peptides III-5 or III-6. […] Protein synthesis, determined as incorporation of ^35S-methionine, was unaffected by peptide addition for at least 180 minutes (Fig. S1) which is well after the onset of DNA synthesis inhibition. Therefore the DNA replication inhibition is not a consequence of a more general effect on protein synthesis, and we conclude that peptide III-5 and III-6 inhibits replication by interfering with the dnaN encoded β-clamp.
Figure 5 Peptides III-5 and III-6 Inhibit DNA replication. […] Samples were taken at the indicated time-points and incorporation of ^3H into DNA was measured by liquid scintillation counting of TCA precipitated material. […]
For measuring DNA and protein synthesis, S. aureus strain 8325−4 was grown exponentially at 37°C in LB supplemented with 0.2 ml ^3H-thymidine (20 Ci/mmol,1 mCi/ml; Perkin Elmer Inc.) and uridine (50 μg/ml). […] The incorporation of ^3H into DNA was determined using a 1450 MicroBeta TriLux Microplate and Scintillation and Luminiscence counter (Perkin Elmer Inc.).

[5] = test system: Protein synthesis in S. aureus strain 8325-4; assay: Protein synthesis, incorporation of 35S-methionine; type: cell-based, Staphylococcus aureus; conditions: 50 μg/ml peptide; for at least 180 minutes; repeated 3 times
Procedure: as §1
S. aureus strain 8325-4 was grown exponentially in LB supplemented with ^35S-methionine. At T=0 peptide III-5 (grey triangles) or III-6 (green squares) was added to a final concentration of 50 μg/ml. Addition of buffer (red filled circles) served as control. Samples were taken at the indicated time-points and incorporation of ^35S into protein was measured by liquid scintillation counting of TCA precipitated material. The experiment was repeated 3 times with similar result. The result from one experiment is shown.

S. aureus strain 8325-4 [6] = assay: Fluorescence microscopy with DAPI staining (cell size, DNA content); type: cell-based, Staphylococcus aureus; conditions: 50 μg/ml; LB, 37°C
Excerpt: The effect of peptides III-5 and III-6 on cell size and DNA content was visualized by fluorescence microscopy. […] A likely explanation is that peptide III-6, through its inhibitory effect on DNA synthesis, also results in an inability for cells to divide. Similar observations have been made for E. coli where failure to complete chromosome replication result in division inhibition and filamentation.
Figure 7 Peptide III-6 affect S. aureus cell size, morphology and DNA content. S. aureus strain 8325−4 was grown exponentially at 37°C in LB medium. […] Cells were stained with DAPI prior to fluorescence microscopy (Materials and Methods).
S. aureus strain 8325-4 or B. subtilis strain 168 was grown exponentially at 37°C in LB. […] The cells were stained with the live/dead stain according to the manufacturer. Phase-contrast and fluorescence images were acquired using a Leica DM5000B microscope with a×100 HCX PL APO NA 1.4 objective and a Leica DFC350FX cooled charge-coupled device camera controlled through FW4000 software (version 1.2.1; Leica Microsystems).

[7] = test system: S. aureus or S. epidermidis; type: cell-based
Excerpt: In agreement with this none of these peptides were particularly hydrophobic or cationic (Table 4). […] This could be tested by construction of deletion mutants lacking one or more of these permeases. We synthesized and tested linear counterparts of the active peptides III-5, III-6 and III-7. […] Increased antibacterial activity of peptides due to circularization has previously been described.

E. coli = assay: Intracellular expression of cyclic DnaA1-86 in E. coli (growth, morphology); type: cell-based, Escherichia coli; conditions: IntC::DnaA1-86::IntN induced with 2 mM IPTG, 30°C; effect attributed mainly to the cyclic fragment
Procedure: We used the SICLOPPS technology for intracellular synthesis of cyclic peptide libraries. Cyclic peptides were chosen over their linear counterparts to limit degradation by cellular proteases. We initially tested the SICLOPPS system by inserting the coding region for amino acids 1−86 (Domain I) of DnaA from E.coli between the C- and N-terminal parts of the split intein.
Figure 2 Intracellular production of cyclic DnaA1-86. Expression of IntC::DnaA1−86::IntN was induced by addition of 2 mM IPTG to cells growing exponentially at 30°C or by plating exponential growing cells on plates containing 2 mM IPTG followed by incubation at 30C. A. Intein-DnaA precursor and splice products were visualized by Western blot using polyclonal anti-DnaA antibodies. B. Growth on LB plates containing 2 mM IPTG (top) and phase-contrast images (bottom) of expressing IntC::IntN (left) or after three hours expression of IntC::DnaA1−86::IntN (right).
Because all cells contained a mix of precursor and splice product it was not clear which species were responsible for filamentation. We therefore mutated the splice site at the IntC-DnaA1−86 (IntC-HNS-DnaA1−86 to IntC-QYS-DnaA1−86) junction to prevent splicing.

Molecule: CO[C@@]12[C@H](COC(N)=O)C3=C(C(=O)C(C)=C(N)C3=O)N1C[C@@H]1N[C@@H]12 [mitomycin C]
- Increase in β-galactosidase activity (recA-lacZ) [1]: about 3 fold

Molecule: CC(C)C[C@@H]1NC(=O)CNC(=O)[C@H](CCC(N)=O)NC(=O)[C@H](CO)NC(=O)[C@H](CCCNC(=N)N)NC(=O)[C@H](CS)NC(=O)[C@H](CCCCN)NC(=O)[C@H](Cc2ccccc2)NC1=O [III-6] (cyclo(CRSQGLFK))
- Potency against S. epidermidis compared with S. aureus (S. epidermidis): somewhat more potent against S. epidermidis
- Ability to interfere with DnaN dimerization after reduction to 8-mers ([2]; cyclic 8-mers with the sequence SXXXXXXG expressed intracellularly, not shown): retaining their ability to interfere with DnaN dimerization
- Reduction of DnaN-DnaN interaction when produced intracellularly ([2]; cyclic peptides expressed in E. coli, Fig. 3): efficient in reducing DnaN-DnaN interaction
- Bacterial growth of uninduced cultures after peptide addition (S. aureus strain 8325-4 [3]; 8 hours duration, colony forming units): cessation of bacterial growth
- Bacterial growth of cultures overproducing DnaN after peptide addition (S. aureus strain 8325-4 [3]; dnaN induced with 10 μM CdCl2 3 hours before (pSC141)): continued growth
- Accumulation of DNA (3H-thymidine incorporation) [4]: severely reduced accumulation of DNA
- Protein synthesis (35S-methionine incorporation) [5]: unaffected
- Cell size (S. aureus strain 8325-4 [6]): increased cell size
- DNA distribution between cells (DAPI staining) (S. aureus strain 8325-4 [6]): uneven DNA distribution between cells
- MIC values (range given for the three active cyclic peptides) [7]: 20−50 μg/ml

B1: cyclic DnaA1−86: spliced cyclic fragment of amino acids 1−86 (Domain I) of E. coli DnaA produced by SICLOPPS (protein, UniProt P03004 1-86, looked up, fragment)
chain: MSLSLWQQCLARLQDELPATEFSMWIRPLQAELSDNTLALYAPNRFVLDWVRDKYLNNINGLLTSFCGADAPQLRFEVGTKPVTQT
modifications: cyclized by SICLOPPS
notes: spliced cyclic fragment of amino acids 1−86 (Domain I) of E. coli DnaA produced by SICLOPPS
- Effect of intracellular expression on E. coli growth and morphology (E. coli): inhibition of growth and cell filamentation
